Four substances from patent US8076520B2, “Phosphatidyl oligoglycerols” (Max-Planck-Gesellschaft zur Forderung der Wissenschaften …, priority 1996, dated 2011) can be followed below.

A short description of data set [1]: Behaviour of PP-G-PGn lipids in water (additional properties). The conditions noted are these: for behaviour when heated in water: heated above 40° C. in water; for stability of the lamellar phases: low temperatures; for time until transition from the isotropic to the anisotropic phase is recognizable: room temperature; for behaviour when the temperature falls: temperature below 40° C. Type of data set: physicochemical. The text has this: As the number of glycerol molecules increases, the number of free hydroxyl groups and thus also the polarity increases. […] Whereas the transition from the isotropic to the anisotropic phase at room temperature is recognizable after a few minutes with PP-G-PG2, it takes several hours for PP-G-PG3. The differences in polarity are also evident from the different retention factors (Rf) in the thin-layer chromatogram on silica gel.

The conditions of data set [2]: in vivo. Here is the method:
In an animal experiment, liposomes were used which consisted of 40 mol % cholesterol, 10 mol % phosphatidylglycerol and 50% dipalmitoyl lecithin.
Liposomes of the same composition were prepared, in which the phosphatidylglycerol was replaced by a phosphatidylglycerol G2 of the invention. […] This linear relation was observed irrespective of the size of the liposomes. The same linear reduction in serum liposome concentration was found with 50 nm liposomes and with 150 nm liposomes. The linear reduction in blood liposome concentration was also observed for different starting concentrations.

For “1.2-dipalmitoyl-sn-glycero-3-phospho-G1-G2 [PP-G-PG2]”, in data set [1], the “behaviour when heated in water” value was “dissolve when heated above 40 °C in water and form superstructures”; the “stability of the lamellar phases” value is “remain stable even at low temperatures (down to 4° C.)”; the “time until transition from the isotropic to the anisotropic phase is recognizable” value is on record as “a few minutes”; the “behaviour when the temperature falls” value was “lamellar structures with differently pronounced hystereses are formed”.
Take “1.2-dipalmitoyl-sn-glycero-3-phospho-G1-G2-G3 [PP-G-PG3]”: in data set [1], the “behaviour when heated in water” value is “dissolve when heated above 40 °C in water and form superstructures”; the “stability of the lamellar phases” value is on record as “remain stable even at low temperatures (down to 4° C.)”; the “time until transition from the isotropic to the anisotropic phase is recognizable” value is given as “several hours”; the “behaviour when the temperature falls” value was “lamellar structures with differently pronounced hystereses are formed”.
For the substance “1.2-dipalmitoyl-sn-glycero-3-phospho-G1-G2-G3-G4 [PP-G-PG4]”, in data set [1] (proportion of 5% in water), the “solution formed in water” value is given as “clear isotropic solution”.
With phosphatidylglycerol, in data set [2], the half-life in serum was 4 h and the “persistence characteristic (decrease of liposomes in serum with time)” value was “a rapid decrease to start with, followed by a slower decrease”.
